# Laboratory results from PMC5218480 (PLoS ONE, 2017).
# Tested on: MV-4-11 cells
# Experiment: Gene expression microarray analysis (Affymetrix PrimeView) and GSEA
# Format: cell-based, human
# Design: RFU PODN (11730768_x_at) / Fold change /veh PODN (11730768_x_at) / RFU LINC00158 (11744669_a_at) / Fold change /veh LINC00158 (11744669_a_at) / RFU DUSP10 (11751237_a_at) / Fold change /veh DUSP10 (11751237_a_at) / RFU ID3 (11757404_x_at) / Fold change /veh ID3 (11757404_x_at) / RFU PLEKHG5 (11737974_s_at) / Fold change /veh PLEKHG5 (11737974_s_at) / RFU LRRC4B (11730491_at) / Fold change /veh LRRC4B (11730491_at) / RFU GIMAP4 (11747438_a_at) / Fold change /veh GIMAP4 (11747438_a_at) / RFU KRT8 (11758183_x_at) / Fold change /veh KRT8 (11758183_x_at) / RFU CNN1 (11734310_a_at) / Fold change /veh CNN1 (11734310_a_at) / RFU VPS37D (11726825_at) / Fold change /veh VPS37D (11726825_at) / RFU C10orf10 (11716522_x_at) / Fold change /veh C10orf10 (11716522_x_at) / RFU KIR2DL2 /// KIR2DL4 /// KIR2DL5A /// KIR2DL5B /// KIR2DS1 /// KIR2DS2 /// KIR2DS3 /// KIR2DS4 /// KIR3DL3 /// KIR3DL3 /// KIR3DS1 (11738374_at) / Fold change /veh KIR2DL2 /// KIR2DL4 /// KIR2DL5A /// KIR2DL5B /// KIR2DS1 /// KIR2DS2 /// KIR2DS3 /// KIR2DS4 /// KIR3DL3 /// KIR3DL3 /// KIR3DS1 (11738374_at) / RFU C1QL1 (11718748_at) / Fold change /veh C1QL1 (11718748_at) / RFU TMPRSS4 (11747572_a_at) / Fold change /veh TMPRSS4 (11747572_a_at) / RFU HAMP (11756126_x_at) / Fold change /veh HAMP (11756126_x_at) / RFU RNFT2 (11725882_a_at) / Fold change /veh RNFT2 (11725882_a_at) / RFU NR4A2 (11747474_a_at) / Fold change /veh NR4A2 (11747474_a_at) / RFU ABCC12 (11746883_a_at) / Fold change /veh ABCC12 (11746883_a_at) / RFU TMEM136 (11760407_x_at) / Fold change /veh TMEM136 (11760407_x_at) / RFU CLDN22 /// WWC2 (11732394_at) / Fold change /veh CLDN22 /// WWC2 (11732394_at) / RFU HLA-DPB1 (11760878_x_at) / Fold change /veh HLA-DPB1 (11760878_x_at) / RFU SPINT1 (11716480_a_at) / Fold change /veh SPINT1 (11716480_a_at) / RFU GAP43 (11754022_s_at) / Fold change /veh GAP43 (11754022_s_at) / RFU A4GNT (11735810_at) / Fold change /veh A4GNT (11735810_at) / RFU PRB3 (11715151_x_at) / Fold change /veh PRB3 (11715151_x_at) / RFU TUBB4B (11761932_at) / Fold change /veh TUBB4B (11761932_at) / RFU CAPN14 (11732068_a_at) / Fold change /veh CAPN14 (11732068_a_at) / RFU TMCC2 (11721928_a_at) / Fold change /veh TMCC2 (11721928_a_at) / RFU IRGQ (11745062_a_at) / Fold change /veh IRGQ (11745062_a_at) / RFU FAM174B (11720279_a_at) / Fold change /veh FAM174B (11720279_a_at) / RFU TMPRSS4 (11748680_a_at) / Fold change /veh TMPRSS4 (11748680_a_at) / RFU FAM212B (11763350_a_at) / Fold change /veh FAM212B (11763350_a_at) / RFU PLEKHG5 (11743358_a_at) / Fold change /veh PLEKHG5 (11743358_a_at) / RFU ZSCAN30 (11745921_a_at) / Fold change /veh ZSCAN30 (11745921_a_at) / RFU CMKLR1 (11741424_a_at) / Fold change /veh CMKLR1 (11741424_a_at) / RFU LOC101060620 /// MAPK8IP1 (11723275_at) / Fold change /veh LOC101060620 /// MAPK8IP1 (11723275_at) / RFU SPTSSB (11747773_x_at) / Fold change /veh SPTSSB (11747773_x_at) / RFU PRSS12 (11739890_at) / Fold change /veh PRSS12 (11739890_at) / RFU BIN1 (11741810_x_at) / Fold change /veh BIN1 (11741810_x_at) / RFU WNT11 (11732464_a_at) / Fold change /veh WNT11 (11732464_a_at) / RFU C10orf10 (11716521_a_at) / Fold change /veh C10orf10 (11716521_a_at) / RFU C5orf56 (11738089_at) / Fold change /veh C5orf56 (11738089_at) / RFU CYB561 (11721691_x_at) / Fold change /veh CYB561 (11721691_x_at) / RFU ANKRD19P (11752326_a_at) / Fold change /veh ANKRD19P (11752326_a_at) / RFU OR2T12 /// OR2T33 /// OR2T8 (11738714_s_at) / Fold change /veh OR2T12 /// OR2T33 /// OR2T8 (11738714_s_at) / RFU VCAN (11748164_a_at) / Fold change /veh VCAN (11748164_a_at) / RFU JSRP1 (11732532_at) / Fold change /veh JSRP1 (11732532_at) / RFU KRTAP10-11 (11738290_x_at) / Fold change /veh KRTAP10-11 (11738290_x_at) / RFU MYO3A (11730013_a_at) / Fold change /veh MYO3A (11730013_a_at) / RFU EBF3 (11725865_a_at) / Fold change /veh EBF3 (11725865_a_at) / RFU CAMK2N1 (11719241_x_at) / Fold change /veh CAMK2N1 (11719241_x_at) / RFU C5orf56 (11738088_a_at) / Fold change /veh C5orf56 (11738088_a_at) / RFU OLFML3 (11715873_a_at) / Fold change /veh OLFML3 (11715873_a_at) / RFU LOC100653217 /// NTM (11731650_a_at) / Fold change /veh LOC100653217 /// NTM (11731650_a_at) / RFU MAPK11 (11762145_a_at) / Fold change /veh MAPK11 (11762145_a_at) / RFU FIZ1 (11724087_x_at) / Fold change /veh FIZ1 (11724087_x_at) / RFU OASL (11726364_x_at) / Fold change /veh OASL (11726364_x_at) / RFU SOX15 (11748057_x_at) / Fold change /veh SOX15 (11748057_x_at) / RFU CD79A (11719716_a_at) / Fold change /veh CD79A (11719716_a_at) / RFU HIST1H1D (11736915_at) / Fold change /veh HIST1H1D (11736915_at) / RFU CASKIN2 (11723855_a_at) / Fold change /veh CASKIN2 (11723855_a_at) / RFU LOC730098 (11760151_x_at) / Fold change /veh LOC730098 (11760151_x_at) / RFU OR4N2 (11742367_at) / Fold change /veh OR4N2 (11742367_at) / RFU PRRT2 (11749266_a_at) / Fold change /veh PRRT2 (11749266_a_at) / RFU SNX32 (11753110_a_at) / Fold change /veh SNX32 (11753110_a_at) / RFU CDHR5 (11726645_a_at) / Fold change /veh CDHR5 (11726645_a_at) / RFU RCAN1 (11760418_a_at) / Fold change /veh RCAN1 (11760418_a_at) / RFU FAM167A (11723789_a_at) / Fold change /veh FAM167A (11723789_a_at) / RFU FAM26E (11764081_at) / Fold change /veh FAM26E (11764081_at) / RFU ISYNA1 (11749810_s_at) / Fold change /veh ISYNA1 (11749810_s_at) / RFU ACY1 (11761880_at) / Fold change /veh ACY1 (11761880_at) / RFU 11764098_at / Fold change /veh 11764098_at / RFU SAMD14 (11745864_x_at) / Fold change /veh SAMD14 (11745864_x_at) / RFU NPB (11741838_a_at) / Fold change /veh NPB (11741838_a_at) / RFU TMPRSS6 (11731388_a_at) / Fold change /veh TMPRSS6 (11731388_a_at) / RFU KRTAP10-2 (11738614_at) / Fold change /veh KRTAP10-2 (11738614_at) / RFU ARHGAP8 /// PRR5-ARHGAP8 (11727945_x_at) / Fold change /veh ARHGAP8 /// PRR5-ARHGAP8 (11727945_x_at) / RFU KRTAP5-7 /// NADSYN1 (11734609_at) / Fold change /veh KRTAP5-7 /// NADSYN1 (11734609_at) / RFU RASL12 (11751679_a_at) / Fold change /veh RASL12 (11751679_a_at) / RFU CDKN2B (11736163_a_at) / Fold change /veh CDKN2B (11736163_a_at) / RFU PRF1 (11729649_at) / Fold change /veh PRF1 (11729649_at) / RFU, ZNF638 /// ZNF638-IT1 / Fold change vs veh, ZNF638 /// ZNF638-IT1 / RFU, PANK3 / Fold change vs veh, PANK3 / RFU, SH3YL1 / Fold change vs veh, SH3YL1 / RFU, ZEB2 / Fold change vs veh, ZEB2 / RFU, NRIP1 / Fold change vs veh, NRIP1 / RFU, PTTG1IP / Fold change vs veh, PTTG1IP / RFU, CAPN2 / Fold change vs veh, CAPN2 / RFU, MED14 / Fold change vs veh, MED14 / RFU, SNORA58 / Fold change vs veh, SNORA58 / RFU, C1orf63 / Fold change vs veh, C1orf63 / RFU, LRRFIP1 / Fold change vs veh, LRRFIP1 / RFU, NDUFAF7 / Fold change vs veh, NDUFAF7 / RFU, SLC12A2 / Fold change vs veh, SLC12A2 / RFU, IBTK / Fold change vs veh, IBTK / RFU, ESF1 / Fold change vs veh, ESF1 / Fold change vs veh, TMEM50B / RFU, TAOK1 / Fold change vs veh, TAOK1 / RFU, ACBD3 / Fold change vs veh, ACBD3 / RFU, TMA16 / Fold change vs veh, TMA16 / RFU, RWDD3 / Fold change vs veh, RWDD3 / RFU, BCAT1 / Fold change vs veh, BCAT1 / RFU, EDEM3 / Fold change vs veh, EDEM3 / RFU, TMEM33 / Fold change vs veh, TMEM33 / RFU, WDR75 / Fold change vs veh, WDR75 / RFU, AHCTF1 / Fold change vs veh, AHCTF1 / RFU, TFRC / Fold change vs veh, TFRC / RFU, ZDHHC17 / Fold change vs veh, ZDHHC17 / RFU, NOM1 / Fold change vs veh, NOM1 / RFU, ARL8B / Fold change vs veh, ARL8B / RFU, ZBTB11 / Fold change vs veh, ZBTB11 / RFU, TAMM41 / Fold change vs veh, TAMM41 / RFU, KIAA1704 /// LOC100996395 / Fold change vs veh, KIAA1704 /// LOC100996395 / RFU, ING1 / Fold change vs veh, ING1 / RFU, TRMT61B / Fold change vs veh, TRMT61B / RFU, FUBP3 / Fold change vs veh, FUBP3 / RFU, TP53 / Fold change vs veh, TP53 / RFU, TNKS2 / Fold change vs veh, TNKS2 / RFU, ZFP14 / Fold change vs veh, ZFP14 / RFU, ACTR2 / Fold change vs veh, ACTR2 / RFU, PPP3R1 / Fold change vs veh, PPP3R1 / RFU, PIK3R1 / Fold change vs veh, PIK3R1 / RFU, HNRNPA1 / Fold change vs veh, HNRNPA1 / RFU, RNF170 / Fold change vs veh, RNF170 / RFU, ZNF28 / Fold change vs veh, ZNF28 / RFU, RNGTT / Fold change vs veh, RNGTT / RFU, OGT / Fold change vs veh, OGT / RFU, BRD1 / Fold change vs veh, BRD1 / RFU, MARS / Fold change vs veh, MARS / RFU, ZNF655 / Fold change vs veh, ZNF655 / RFU, FAHD1 / Fold change vs veh, FAHD1 / RFU, BDP1 / Fold change vs veh, BDP1 / RFU, LRRCC1 / Fold change vs veh, LRRCC1 / RFU, ARID1A / Fold change vs veh, ARID1A / RFU, ZNF146 / Fold change vs veh, ZNF146 / RFU, ZNF330 / Fold change vs veh, ZNF330 / RFU, GPN3 / Fold change vs veh, GPN3 / RFU, C9orf123 / Fold change vs veh, C9orf123 / RFU, N4BP2L2 / Fold change vs veh, N4BP2L2 / RFU, ARFIP1 / Fold change vs veh, ARFIP1 / RFU, FAM179B / Fold change vs veh, FAM179B / RFU, BCL10 / Fold change vs veh, BCL10 / RFU, UHRF1BP1L / Fold change vs veh, UHRF1BP1L / RFU, BET1 / Fold change vs veh, BET1 / RFU, CNOT2 / Fold change vs veh, CNOT2 / RFU, ZNF268 / Fold change vs veh, ZNF268 / Fold change vs veh, ZNF507 / RFU, DGCR2 / Fold change vs veh, DGCR2 / RFU, WDSUB1 / Fold change vs veh, WDSUB1 / Fold change vs veh, HSP90B1 /// MIR3652 / RFU, ADSS / Fold change vs veh, ADSS / RFU, GK / Fold change vs veh, GK / RFU, ZNF148 / Fold change vs veh, ZNF148 / RFU, TAF9 / Fold change vs veh, TAF9 / RFU, SLC1A5 / Fold change vs veh, SLC1A5 / RFU, SLMO2 / Fold change vs veh, SLMO2 / RFU, ABCC4 / Fold change vs veh, ABCC4 / RFU, LOC101060439 /// RAP1B / Fold change vs veh, LOC101060439 /// RAP1B / RFU, RFX7 / Fold change vs veh, RFX7 / RFU, GTPBP10 / Fold change vs veh, GTPBP10 / RFU, CNEP1R1 / Fold change vs veh, CNEP1R1 / RFU, BIVM-ERCC5 /// ERCC5 / Fold change vs veh, BIVM-ERCC5 /// ERCC5 / RFU, ILF3 / Fold change vs veh, ILF3 / RFU 11762660_at / Fold change /veh 11762660_at / RFU VCAN (11757783_s_at) / Fold change /veh VCAN (11757783_s_at) / RFU DDX43 (11728927_at) / Fold change /veh DDX43 (11728927_at) / RFU KRT8 (11758188_x_at) / Fold change /veh KRT8 (11758188_x_at) / RFU NKD1 (11759106_at) / Fold change /veh NKD1 (11759106_at) / RFU SRD5A1 (11742802_a_at) / Fold change /veh SRD5A1 (11742802_a_at) / RFU TPSAB1 /// TPSB2 (11721975_s_at) / Fold change /veh TPSAB1 /// TPSB2 (11721975_s_at) / RFU GSTM3 (11746129_a_at) / Fold change /veh GSTM3 (11746129_a_at) / RFU IL23R (11737362_x_at) / Fold change /veh IL23R (11737362_x_at) / RFU TMEM51 (11727254_a_at) / Fold change /veh TMEM51 (11727254_a_at) / RFU PIWIL2 (11732686_x_at) / Fold change /veh PIWIL2 (11732686_x_at) / RFU ORM1 (11744905_x_at) / Fold change /veh ORM1 (11744905_x_at) / RFU CCDC152 (11743942_at) / Fold change /veh CCDC152 (11743942_at) / RFU ECM1 (11717891_a_at) / Fold change /veh ECM1 (11717891_a_at) / RFU IL23R (11748794_a_at) / Fold change /veh IL23R (11748794_a_at) / RFU TNFAIP8L3 (11732012_x_at) / Fold change /veh TNFAIP8L3 (11732012_x_at) / RFU MBOAT4 (11741988_at) / Fold change /veh MBOAT4 (11741988_at) / RFU 11764193_at / Fold change /veh 11764193_at / RFU TMEM53 (11763286_at) / Fold change /veh TMEM53 (11763286_at) / RFU MAGEB2 (11727129_at) / Fold change /veh MAGEB2 (11727129_at) / RFU TMEM200A (11744735_a_at) / Fold change /veh TMEM200A (11744735_a_at) / RFU CCDC152 (11751479_a_at) / Fold change /veh CCDC152 (11751479_a_at) / RFU FAM211A (11726209_a_at) / Fold change /veh FAM211A (11726209_a_at) / RFU RGS16 (11746705_a_at) / Fold change /veh RGS16 (11746705_a_at) / RFU VCAN (11755009_s_at) / Fold change /veh VCAN (11755009_s_at) / RFU RHOB (11743442_s_at) / Fold change /veh RHOB (11743442_s_at) / RFU RGS16 (11720943_a_at) / Fold change /veh RGS16 (11720943_a_at) / RFU RGS16 (11720944_at) / Fold change /veh RGS16 (11720944_at) / RFU, VPS4B / Fold change vs veh, VPS4B / RFU, CREB1 / Fold change vs veh, CREB1 / RFU, DNAJC13 / Fold change vs veh, DNAJC13 / RFU, GNAQ / Fold change vs veh, GNAQ / RFU, CDK5R1 / Fold change vs veh, CDK5R1 / RFU, ZRANB3 / Fold change vs veh, ZRANB3 / RFU, CUL4A / Fold change vs veh, CUL4A / RFU, CCNY / Fold change vs veh, CCNY / RFU, UFL1 / Fold change vs veh, UFL1 / RFU, COG3 / Fold change vs veh, COG3 / RFU, DIAPH2 / Fold change vs veh, DIAPH2 / RFU, SKA2 / Fold change vs veh, SKA2 / RFU, AFF3 / Fold change vs veh, AFF3 / RFU, LMF1 / Fold change vs veh, LMF1 / RFU, IPO11 / Fold change vs veh, IPO11 / RFU, DFFB / Fold change vs veh, DFFB / RFU, FOXP1 / Fold change vs veh, FOXP1 / RFU, CARD8 / Fold change vs veh, CARD8 / RFU, STRN3 / Fold change vs veh, STRN3 / RFU, ADK / Fold change vs veh, ADK / RFU, RASSF2 / Fold change vs veh, RASSF2 / RFU, WIPF1 / Fold change vs veh, WIPF1 / RFU, LARP1B / Fold change vs veh, LARP1B / RFU, RASA1 / Fold change vs veh, RASA1 / RFU, RB1 / Fold change vs veh, RB1 / RFU, PPFIA1 / Fold change vs veh, PPFIA1 / RFU, MAT2A / Fold change vs veh, MAT2A / RFU, CCT5 / Fold change vs veh, CCT5 / RFU, WDR92 / Fold change vs veh, WDR92 / RFU, CUX1 / Fold change vs veh, CUX1 / RFU, TTC7A / Fold change vs veh, TTC7A / RFU, TMEM135 / Fold change vs veh, TMEM135 / RFU, DEPTOR / Fold change vs veh, DEPTOR / RFU, CPM / Fold change vs veh, CPM / RFU, DNAJB6 / Fold change vs veh, DNAJB6 / RFU, CACNA2D3 / Fold change vs veh, CACNA2D3 / RFU, DTX4 / Fold change vs veh, DTX4 / RFU, TFCP2 / Fold change vs veh, TFCP2 / RFU, GMCL1 /// GMCL1P1 / Fold change vs veh, GMCL1 /// GMCL1P1 / RFU, AEBP2 / Fold change vs veh, AEBP2 / RFU, SNHG1 /// SNORD22 /// SNORD25 /// SNORD26 /// SNORD27 /// SNORD28 /// SNORD29 /// SNORD31 / Fold change vs veh, SNHG1 /// SNORD22 /// SNORD25 /// SNORD26 /// SNORD27 /// SNORD28 /// SNORD29 /// SNORD31 / Fold change (Aza/veh), C12orf56 (ProbeSet 11735607_a_at) / Fold change (ACY-1035/veh), C12orf56 (ProbeSet 11735607_a_at) / Fold change (Aza/veh), FGFR1OP (ProbeSet 11751329_s_at) / Fold change (ACY-1035/veh), FGFR1OP (ProbeSet 11751329_s_at) / Fold change (Aza/veh), VPS36 (ProbeSet 11739960_a_at) / Fold change (ACY-1035/veh), VPS36 (ProbeSet 11739960_a_at) / RFU SYPL1 (11715823_x_at) / Fold change /veh SYPL1 (11715823_x_at) / RFU IGFBP7 (11715501_s_at) / Fold change /veh IGFBP7 (11715501_s_at) / RFU REEP3 (11722064_at) / Fold change /veh REEP3 (11722064_at) / RFU IGLL1 (11728026_x_at) / Fold change /veh IGLL1 (11728026_x_at): dose or concentration left out as unconfirmed
# Details: MV-4-11 cells, 48 hours
smiles,measurement,value
Nc1ncn([C@@H]2O[C@H](CO)[C@@H](O)[C@H]2O)c(=O)n1 [azacitidine],Fold change /veh EBF3 (11725865_a_at),1.12
